Entries after “also recorded” stand apart in the source; their conditions may differ. Each block holds one molecule with its values, some of them ahead of it.
Tests used:
antibody Refmab #1 [1] = experiment: Octet screen: binding of CD117 D1-2-3 variants to captured Refmab #1; settings: nm shift at end of association, top analyte concentration (500 nM)
Method in brief: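 Refmab #1 captured on anti-human Fc biosensors; human CD117 D1-2-3 wt or variants flowed as analyte at 500, 50 and 5 nM, 25° C., 300 s association/900 s dissociation, buffer-referenced. Binding level at top concentration, end of association, expressed as percent of wild type; 1:1 fits where possible.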

antibody Refmab #1 [2] = experiment: Octet titration, steady state KD of CD117 D1-2-3 variants to Refmab #1; format: binding; settings: nm shift higher than 0.1 nm counts as binding
Refmab #1, sequence (as listed by the source, one chain of several): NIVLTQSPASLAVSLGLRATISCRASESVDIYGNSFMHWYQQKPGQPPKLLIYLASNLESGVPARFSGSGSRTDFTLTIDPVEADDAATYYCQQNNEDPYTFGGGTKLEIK
Protocol: To further characterize binding of Refmab #1 to CD117 D1-2-3 variants E73K, E73L, E73R, E73Y, D121H, D121K, S123K and S123F, the analytes were titrated at 7 different concentrations (from 2000 nM to 5 nM). Antibody Refmab #1 was captured by AHC biosensors for 300 s at 0.5 to 1 μg/mL. Association and dissociation to Refmab #1 was extended to 600 s and 1000 s, respectively. Steady state analysis was performed.

TF-1 cells [3] = experiment: SCF-dependent proliferation, SCF titration on TF-1 cells with CD117 variants (CellTiter-Glo); format: cell-based, human; settings: for EC50 Average: average of two experiments; for EC50 Experiment #1 / EC50 Experiment #2: titration of SCF, 3 days, TF-1 cells with the CD117 variant
Protocol: In another experiment, SCF-dependent proliferation of variants E73K, E73Y, D121K, S123F and S123K was compared against wildtype CD117. TF-1 cells were seeded at a cell concentration of 150 000 cells/ml in sterile, white cell culture treated plates with transparent bottom in RPMI+GlutaMax+10% FCS. Cells were treated with a titration of SCF. After 3 days of incubation a CellTiter-Glo 2.0 assay (Promega) was performed, luminescence was read in a luminometer (Envision plate reader) and EC50's was determined. Two different experiments with triplicates in each experiment were performed.

TF-1 cells [4] = experiment: SCF-dependent phosphorylation of CD117 variants in TF-1 cells (Tyr719 ELISA); format: cell-based, human; settings: 1-20 ng/ml SCF for 5 minutes
Protocol: TF-1 cells (wild type, knock out, and variants E73K, D121K and S123K of CD117) were seeded at a concentration of 1 million cells/ml in 2 ml of Medium (RPMI1640 supplemented with GlutaMAX+10% heat inactivated FBS) in a 6-well plate. Cells were treated with 1-20 ng/ml recombinant human SCF (1 mg/ml PeproGMP Recombinant Human SCF) for 5 minutes, before cell collection. Cells were washed with ice-cold PBS, before resuspending cells in 500 μL Lysis Buffer (Lysis buffer from Signaling containing Protease Inhibitor and Phosphatase Inhibitor). Cells were flash frozen in liquid nitrogen and thawed at 37° C. twice, before freezing them at −80° C. until further usage. Undiluted samples were thawed and processed according to the manufacturers protocol for the PathScan Phospho-c-Kit (Tyr719) Sandwich ELISA Kit (Cell Signaling). Absorbance (OD_450 nm) was assessed using the Envision (Perkin Elmer).

Refmab #1 = Refmab #1 titration on engineered TF-1 cells (flow cytometry); format: binding; settings: 5-0.00015 μg/mL antibody; 4° C.
Protocol: Binding of Refmab #1 was assessed in a flow cytometry assay. TF-1 cells were seeded at a cell concentration of 1,000,000 cells/ml in FACS Buffer (PBS+2% FCS+1 mM EDTA). After a Fc blocking using 1:20 diluted TruStain (BioLegend, #422302) in FACS buffer for 15 minutes at 4° C., cells were washed twice with FACS buffer. Subsequently, a SR-1 titration was added to the cells using 5-0.00015 μg/mL antibody for 30 minutes at 4° C. on a plate shaker. Cells were washed twice with FACS buffer and a secondary labelled antibody (IgG (H+L) Cross-Adsorbed Goat anti-Human, Alexa Fluor® 488, Invitrogen, A11013) was added to the cells for 30 minutes at 4° C. on a plate shaker. Cells were washed twice with FACS buffer, before adding 1:100 diluted solution of 7AAD staining (cell viability) in FACS buffer for a couple of minutes and analyzing the cells using the Novocyte Quanteon (Agilent).

CD117 = experiment: Blocking of SCF-induced CD117 phosphorylation (Tyr719 ELISA), wild type TF-1 cells; format: cell-based, human; settings: 0.5 ug/mL antibody or 500 nM avapritinib; 100 ng/ml SCF 5 minutes
Protocol: (§1) SCF-dependent phosphorylation is another function of CD117. SCF-dependent phosphorylation was measured using TF-1 cells expressing CD117 (as shown in previous experiments). TF-1 cells were seeded at a concentration of 1 million cells/ml in 1 ml of Medium (RPMI1640 supplemented with GlutaMAX+10% heat inactivated FBS) in a 6-well plate. Cells were treated with 0.5 ug/mL antibody or 500 nM avapratinib. Cells were then treated with 100 ng/ml recombinant human SCF (1 mg/ml PeproGMP® Recombinant Human SCF) for 5 minutes, before cell collection. Cells were washed with ice-cold PBS, before resuspending cells in 250 μL Lysis Buffer (Lysis buffer from Signaling containing Protease Inhibitor and Phosphatase Inhibitor). Cells were flash frozen in liquid nitrogen and thawed at 37° C. twice, before freezing them at −80° C. until further usage. Undiluted samples were thawed and processed according to the manufacturers protocol for the PathScan® Phospho-c-Kit (Tyr719) Sandwich ELISA Kit (Cell Signaling). Absorbance (OD_450 nm) was assessed using the Envision (Perkin Elmer).
(§2) TF-1 cells (wild type, and variants E73K, E73Y, D121K, S123F and S123K of CD117) were seeded at a concentration of 1 million cells/mL in 2 ml of Medium (RPMI1640 supplemented with GlutaMAX+10% heat inactivated FBS) in a 6-well plate. Cells were pre-treated with 0.5 μg/ml of antibodies Refmab #1-Ernie or Refmab #1-Bert for 30 minutes, before adding 100 ng/ml recombinant human SCF (1 mg/mL PeproGMP® Recombinant Human SCF) for 5 minutes. Cells were collected, washed once with ice-cold PBS and resuspended in 500 μL Lysis Buffer (Lysis buffer from Signaling containing Protease Inhibitor and Phosphatase Inhibitor). Cells were then flash frozen in liquid nitrogen and thawed at 37° C. twice, before freezing them at −80° C. until further usage. Undiluted samples were thawed and processed according to the manufacturers protocol for the PathScan Phospho-c-Kit (Tyr719) Sandwich ELISA Kit (Cell Signaling) or the Human c-Kit (CD117) ELISA Kit (Abcam). Absorbance (OD_450 nm) was assessed using the Envision (Perkin Elmer).

variants of CD117 = experiment: Blocking of SCF-induced CD117 phosphorylation (Tyr719 ELISA), TF-1 cells with CD117 variants; format: cell-based, human; settings: 0.5 μg/ml antibody 30 minutes; 100 ng/ml SCF 5 minutes; same for E73K, E73Y, S123F (data not shown)
Protocol: as §1, §2

SCF = molecular target: T1, SCF (Homo sapiens, UniProt P21583); experiment: Octet: binding of CD117 D1-2-3 variants to SCF; settings: CD117 D1-2-3 constructs; steady state
T1 construct: purchased Acros Biosystems SCF-H82E1
T1 sequence (P21583 26-273): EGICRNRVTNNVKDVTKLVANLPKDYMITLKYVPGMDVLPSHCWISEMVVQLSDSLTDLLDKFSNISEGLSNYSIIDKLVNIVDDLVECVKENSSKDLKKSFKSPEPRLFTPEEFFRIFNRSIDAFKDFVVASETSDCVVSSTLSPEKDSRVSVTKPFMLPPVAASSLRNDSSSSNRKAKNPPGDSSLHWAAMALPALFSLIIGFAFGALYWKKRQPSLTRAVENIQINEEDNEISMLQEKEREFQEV
Protocol: SCF binding is one function of CD117. SCF binding is important for the transmission of functional signals by CD117. Binding of the elected variants to SCF was measured on an Octet system RED96e or R8 at 25° C. with shaking at 1000 rpm using 1× Kinetic Buffer (Sartorius, PN: 18-1105). […] Domain 1, 2, 3 comprise the binding site for SCF. Domains 4 and 5 were used as a negative, non-binding control.
CD117 D1-2-3 wt and variants thereof are titrated with different concentrations from 1000 to 5 nM. Association was monitored for 300 s and dissociation for 600 s. Binding to human CD117 domain 4 and 5 (CD117 D4-5) was performed under the same conditions as non-binding control. Reference subtraction was performed against buffer only wells. Biosensors were not regenerated and a new set of SA biosensors was used for each analyte. Data were analyzed using the Octet Data Analysis software HT 12.0. Steady state data analysis was performed due to the fast on/off nature of the interaction.

Refmab #2 = experiment: Octet: binding of CD117 variants to Refmab #2; settings: qualitative Octet analysis
Protocol: A more sophisticated analysis of binding to the elected variants was performed with antibody Refmab #1. Binding of Refmab #1 to wt and variants (analyte) was measured in an Octet system RED96e or R8 at 25° C. with shaking at 1,000 rpm using 1× kinetic buffer (Sartorius, PN: 18-1105). First, the elected variants were screened for their ability to bind Refmab #1 using three different concentrations of analytes. Antibody Refmab #1 was captured by Anti-Human Fc capture biosensor (AHC) (Sartorius, PN: 18-5060) for 300 s at 0.5 to 1 μg/mL. As an analyte, human CD117 wt and variants, containing only domains 1, 2 and 3 (CD117 D1-2-3), was titrated at 500 nM, 50 nM and 5 nM. Association and dissociation of the analyte to Refmab #1 was monitored for 300 s and 900 s, respectively. Reference subtraction was performed against buffer only wells. AHC tips were regenerated using 10 mM Gly-HCl pH 1.7. Data were analyzed using the Octet Data Analysis software HT 12.0. Data were fitted (when possible) to a 1:1 binding model. Kinetic rates ka and […] globally fitted. Binding level of the elected variants were compared to wild type and are shown as percent in FIG. 7. For this qualitative analysis, the binding level of the top analyte concentration at end of the association step was used.
A similar experiment to that in Example 7 was performed, but utilizing Refmab's #2 and #3.

Biotinylated Avitag-hSCF = molecular target: T2, Biotinylated Avitag-hSCF (human, UniProt P21583 26-190, limits assumed, biotinylated Avitag); experiment: BLI (Octet), steady state: biotinylated SCF on streptavidin biosensor, CD117 D1-2-3 variant as analyte; KD relative to WT
T2 construct: Bought reagent; also called hSCF (Acros Biosystems SCF-H82E1)
T2 sequence (P21583 26-190 limits assumed): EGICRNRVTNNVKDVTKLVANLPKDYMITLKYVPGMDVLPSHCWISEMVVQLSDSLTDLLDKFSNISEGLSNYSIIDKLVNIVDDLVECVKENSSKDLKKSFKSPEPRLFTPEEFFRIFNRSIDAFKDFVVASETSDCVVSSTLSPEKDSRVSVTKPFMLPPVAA
Protocol: Association was monitored for 300 s and dissociation for 600 s. […] Reference subtraction was performed against buffer only wells. Biosensors were not regenerated and a new set of SA biosensors was used for each analyte. Data were analyzed using the Octet Data Analysis software HT 12.0. Steady state data analysis was performed due to the fast on/off nature of the interaction.

antibody Refmab #1, sequence (as listed by the source, one chain of several): as the sequence (as listed by the source, one chain of several) above

Molecule: S123K: variant of human CD117 with substitution S123K
- binding to Refmab #1 compared to wild type (antibody Refmab #1 [1]): particular strong decrease in binding
- binding of Refmab #1 at 2000 nM variant (antibody Refmab #1 [2]): No binding
- EC50 Average (TF-1 cells [3]): 3.54 ± 0.23 ng/mL
- EC50 Experiment #1 (TF-1 cells [3]): 3.76 ng/mL
- EC50 Experiment #2 (TF-1 cells [3]): 3.31 ng/mL
- SCF-dependent phosphorylation at position Tyr719 of CD117 (TF-1 cells [4]): showed a SCF-dependent phosphorylation
- Binding of Refmab #1 to TF-1 cells expressing the CD117 variant (Refmab #1): completely abolished

B1: Refmab #1-Ernie: improved version of Refmab #1, VH SEQ ID 15, VL SEQ ID 62 (antibody, V domains shown)
VH: QVQLQQPGAELVKPGASVKMSCKASGYTFTSYNMHWVKQTPGQGLEWIGVIYSGNGDTSYNQKFKGKATLTADKSSSTAYMQINSLTSEDSAVYYCARERDTRFGNWGQGTLVTVSA
VL: EIVLTQSPSSLSASVGDRVTITCRASESVDIYGESFMHWYQQKPGKAPKLLIYLASNLESGVPSRFSGSGSGTDFTLTISSLQPEDFATYYCQQNNEEPYTFGQGTKLEIKRTV
modifications: Refmab #1 VH
- blocking of SCF-induced phosphorylation, wild type cells (CD117): blocked
- blocking of SCF-dependent CD117 phosphorylation, D121K and S123K variants (variants of CD117): unaffected

B2: S239H: variant of human CD117 with substitution S239H (protein)
chain: QPSVSPGEPSPPSIHPGKSDLIVRVGDEIRLLCTDPGFVKWTFEILDETNENKQNEWITEKAEATNTGKYTCTNKHGLSNSIYVFVRDPAKLFLVDRSLYGKEDNDTLVRCPLTDPEVTNYSLKGCQGKPLPKDLRFIPDPKAGIMIKSVKRAYHRLCLHCSVDQEGKSVLSEKFILKVRPAFKAVPVVSVSKASYLLREGEEFTVTCTIKDVHSSVYSTWKRENSQTKLQEKYNSWHHGDFNYERQATLTISSARVNDSGVFMCYANNTFGSANVTTTLEVVDKG
- KD increase of SCF binding compared to wild type CD117 (SCF): less than three-fold; also recorded: less than four-fold
- binding to Refmab #2 compared to wild type CD117 (Refmab #2): strong decrease in binding

Now from value to molecule, other results behind:

- binding to Refmab #1 compared to wild type (antibody Refmab #1 [1]): particular strong decrease in binding
- binding of Refmab #1 at 2000 nM variant (antibody Refmab #1 [2]): No binding
Molecule: D121K: variant of human CD117 with substitution D121K
- EC50 Average (TF-1 cells [3]): 3.70 ± 0.45 ng/mL
- EC50 Experiment #1 (TF-1 cells [3]): 4.15 ng/mL
- EC50 Experiment #2 (TF-1 cells [3]): 3.25 ng/mL
- SCF-dependent phosphorylation at position Tyr719 of CD117 (TF-1 cells [4]): showed a SCF-dependent phosphorylation
- Binding of Refmab #1 to TF-1 cells expressing the CD117 variant (Refmab #1): completely abolished

- binding to Refmab #2 compared to wild type CD117 (Refmab #2): strong decrease in binding
B3: S239K: variant of human CD117 with substitution S239K (protein)
chain: QPSVSPGEPSPPSIHPGKSDLIVRVGDEIRLLCTDPGFVKWTFEILDETNENKQNEWITEKAEATNTGKYTCTNKHGLSNSIYVFVRDPAKLFLVDRSLYGKEDNDTLVRCPLTDPEVTNYSLKGCQGKPLPKDLRFIPDPKAGIMIKSVKRAYHRLCLHCSVDQEGKSVLSEKFILKVRPAFKAVPVVSVSKASYLLREGEEFTVTCTIKDVKSSVYSTWKRENSQTKLQEKYNSWHHGDFNYERQATLTISSARVNDSGVFMCYANNTFGSANVTTTLEVVDKG

- binding to Refmab #1 compared to wild type (antibody Refmab #1 [1]): particular strong decrease in binding
- binding to Refmab #2 compared to wild type CD117 (Refmab #2): strong decrease in binding
- binding result (Biotinylated Avitag-hSCF): binds
B4: R122H (receptor)
extracellular domains 1, 2 and 3: QPSVSPGEPSPPSIHPGKSDLIVRVGDEIRLLCTDPGFVKWTFEILDETNENKQNEWITEKAEATNTGKYTCTNKHGLSNSIYVFVRDPAKLFLVDHSLYGKEDNDTLVRCPLTDPEVTNYSLKGCQGKPLPKDLRFIPDPKAGIMIKSVKRAYHRLCLHCSVDQEGKSVLSEKFILKVRPAFKAVPVVSVSKASYLLREGEEFTVTCTIKDVSSSVYSTWKRENSQTKLQEKYNSWHHGDFNYERQATLTISSARVNDSGVFMCYANNTFGSANVTTTLEVVD
notes: not in the list MOLECULES; also called human CD117 D1-2-3 variant R122H

From patent US20250057951A1, “DISCERNIBLE CELL SURFACE PROTEIN VARIANTS OF CD117 FOR USE IN CELL THERAPY” (UNIVERSITÄT BASEL, priority 2021, published 2025)
